The nature of one series: Vapor-liquid equilibrium still, trichloroethylene-n-butanol azeotrope with extractive distillation agent. Format: physicochemical.
Details: not given
In the case of `COCC(C)OC(C)=O` (stereo not drawn) [1-Methoxy-2-propanol acetate], the “Relative Volatility” value was found to be 1.5.
Regarding `CN(C)C=O` [Dimethylformamide], the “Relative Volatility” value amounted to 4.5.
Turning to `CC(C)COC(=O)C(C)C` [Isobutyl isobutyrate], the “Relative Volatility” value is 1.5.
The same measure, in the same setting: then `CC(C)CCCCCCCO` [Isodecyl alcohol], with 3.6.

Staying with this series, now noted: trichloroethylene from n-butanol, Table 2.
`CC(=O)O[C@@H]1C[C@H]2CC[C@]1(C)C2(C)C` (racemic) [Isobornyl acetate]: the “Relative Volatility” value is reported as 1.25.
The same measure, in the same setting: then `CC(C)CC(=O)CC(C)C` [2,6-Dimethyl-4-heptanone], with 1.35.
With `CCCCCC(C)=O` [2-Heptanone], the “Relative Volatility” value is reported as 1.7.
Turning to `CCCC(C)CO` (stereo not drawn) [2-Methyl pentanol], the “Relative Volatility” value was 3.5.
As to `CCCCCCC(C)=O` [2-Octanone], the “Relative Volatility” value is on record as 1.4.
Turning to `CCCCCC(=O)CC` [3-Octanone], the “Relative Volatility” value came to 1.35.
On to `CC(=O)CCC(C)C` [5-Methyl-2-hexanone], for which the “Relative Volatility” value amounted to 1.6.
Same read-out and setting: next, `CC(=O)CCC(C)=O` [Acetonylacetone]: 2.6; `CC(=O)c1ccccc1` [Acetophenone]: 1.6.
As for `CC(C)CC(=O)CC(C)C` [Diisobutyl ketone], the “Relative Volatility” value is on record as 1.4.
Take `CCOC(=O)CC(C)C` [Ethyl isovalerate]: the “Relative Volatility” value is 1.45.
Regarding `CCCCC(=O)OCC` [Ethyl valerate], the “Relative Volatility” value was 3.0.
Regarding `CC(C)CC(C)O` (stereo not drawn) [Methyl isobutyl carbinol], the “Relative Volatility” value was found to be 2.4.
On the same count and under the same terms, next, `O=S1(=O)CCCC1` [Sulfolane]: 2.5; `CCCCCCO` [n-Hexyl alcohol]: 3.1; `CCCCCCCCCO` [n-Nonyl alcohol]: 2.5.

The next series can be described thus: Vapor-liquid equilibrium still, t-butanol-trichloroethylene azeotrope with extractive distillation agent. The class given is physicochemical. The settings on record: trichloroethylene from t-butanol, Table 10. The source says:
The data in Tables 2, 3, 5, 7, 8, 10 and 11 was obtained in a vapor-liquid equilibrium still. In every case, the starting mixture was the trichloroethylene-butanol azeotrope. The relative volatilities are listed for each of the agents.
Seventy grams of the t-butanol-trichloroethylene azeotrope and 30 grams of n-butyl acetate were charged to the vapor-liquid equilibrium still and refluxed for fourteen hours.
Take 2-Methoxyethyl ether acetate: the “Relative Volatility” value came to 1.85.
With `COCC(C)OC(C)=O` (stereo not drawn) [1-Methoxy-2-propanol acetate], the “Relative Volatility” value worked out at 1.65.
Consider `COCC(C)O` (stereo not drawn) [1-Methoxy-2-propanol], for which the “Relative Volatility” value turned out to be 1.65.
The same measure, in the same setting: next, `CC(=O)CC(C)=O` [2,4-Pentanedione]: 1.4.
The same measure, in the same setting: next, `CCCC(C)=O` [2-Pentanone]: 1.9; `CCCCC(=O)CC` [3-Heptanone]: 1.35.
The same measure, in the same setting: then `CCCC(=O)CC` [3-Hexanone], with 1.55; and `CC(=O)CC(C)C` [4-Methyl-2-pentanone], with 1.5; and `CC(=O)CCC(C)C` [5-Methyl-2-hexanone], with 1.3.
Consider `CC(C)CC(=O)CC(C)C` [Diisobutyl ketone], for which the “Relative Volatility” value is recorded as 1.4.
On the same count and under the same terms, then `CCCC(=O)OCC` [Ethyl butyrate], with 1.5; and `CCOCCC(=O)OCC` [Ethyl ethoxy propionate], with 1.45; and `CCOC(=O)CC(C)C` [Ethyl isovalerate], with 1.5.
Turning to `CCOC(=O)CC` [Ethyl propionate], the “Relative Volatility” value turned out to be 2.4.
The same measure, in the same setting: then `CCCCC(=O)OCC` [Ethyl valerate], with 1.65.
On to `CCCCCCOC(C)=O` [Hexyl acetate], for which the “Relative Volatility” value stood at 1.4.
Still for that read-out and setting: then `CC(=O)OCCC(C)C` [Isoamyl acetate], with 1.5; and `CC(=O)OCC(C)C` [Isobutyl acetate], with 1.4.
The same measure, in the same setting: then `CCCC(=O)OCC(C)C` [Isobutyl butyrate], with 1.65.
Still for that read-out and setting: then `CC(C)COC(=O)C(C)C` [Isobutyl isobutyrate], with 1.45; and `CC(=O)CCC(C)C` [Methyl isoamyl ketone], with 1.4.
Take `CC(=O)CC(C)C` [Methyl isobutyl ketone]: the “Relative Volatility” value is recorded as 1.3.
For `CC(=O)C(C)C` [Methyl isopropyl ketone], the “Relative Volatility” value turned out to be 1.3.
Consider `CCCCCOC(C)=O` [n-Amyl acetate], for which the “Relative Volatility” value worked out at 1.7.
Regarding `CCCOC(C)=O` [n-Propyl acetate], the “Relative Volatility” value is given as 2.9.
